Results from the supplement of paper PMC11061612.

Key:
[1] = system: BE-13 (T-Lymphoblastic Leukemia); experiment: Bliss excess, mean over the matrix (fraction); higher = more synergy
Method in brief: (§1)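 Cell lines grown in DMEM/F12 or RPMI with 10% FBS were plated in 1536-well plates and held 24 hours at 37°C, 5% CO2 before 72 hours of exposure to two-drug dose matrices, with DMSO typically at 0.2%. CellTiter-Glo 2.0 luminescence gave viability, which was converted to inhibition. Vehicle wells were set to 0 and blank wells to 1. Combination Emax is the second-highest inhibition in the matrix, and Bliss excess is the observed combination effect minus the expected EA + EB − EA·EB, where EA and EB are the single-agent effects.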

[2] = system: KYAE-1 (Esophageal Adenocarcinoma); experiment: as above
Method in brief: as §1

[3] = system: NCI-H720 (Other Solid Carcinomas); experiment: as above
Method in brief: as §1

[4] = system: HeLa (Cervical Carcinoma); experiment: as above
Method in brief: as §1

[5] = system: SNU-16 (Gastric Carcinoma); experiment: as above
Method in brief: as §1

MPP-89 (Mesothelioma) = experiment: as above
Method in brief: as §1

[6] = system: NCI-H209 (Small Cell Lung Carcinoma); experiment: as above
Method in brief: as §1

NCI-H2722 (Mesothelioma) = experiment: as above
Method in brief: as §1

[7] = system: OV-56 (Ovarian Carcinoma); experiment: as above
Method in brief: as §1

[8] = system: NCI-H720 (Other Solid Carcinomas); experiment: combination Emax (second highest fraction inhibited in the dose matrix, 72 h); higher = more inhibition; extreme values may be limits of the assay
Method in brief: as §1

[9] = system: MHH-CALL-2 (B-Lymphoblastic Leukemia); experiment: Bliss excess, mean over the matrix (fraction); higher = more synergy
Method in brief: as §1

[10] = system: MHH-CALL-2 (B-Lymphoblastic Leukemia); experiment: combination Emax (second highest fraction inhibited in the dose matrix, 72 h); higher = more inhibition; extreme values may be limits of the assay
Method in brief: as §1
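For Bliss excess, mean over the matrix in this document: after 72 h of two-drug dosing.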

SMILES	Bliss excess [1]	Bliss excess [2]	Bliss excess [3]	Bliss excess [4]	Bliss excess [5]	Bliss excess (MPP-89 (Mesothelioma))	Bliss excess [6]	Bliss excess (NCI-H2722 (Mesothelioma))	Bliss excess [7]	combination Emax [8]	Bliss excess [9]	combination Emax [10]
Cc1cc2ncnn2cc1Nc1ncc2c(n1)n(C1CCOCC1)c(=O)n2C [AZD7648] + CCN(CCO)CCCOc1ccc2c(Nc3cc(CC(=O)Nc4cccc(F)c4)[nH]n3)ncnc2c1 [AZD2811] (first compound max 10 µM, 7x7, partner max 1 µM)	-0.066	-0.002	0.0621	0.0511	0.0793	0.0023	0.0054	0.0323	0.0307	0.756		
CN(CCO)CC[C@H](CSc1ccccc1)Nc1ccc(S(=O)(=O)NC(=O)c2ccc(N3CCC([C@@H](O)c4ccccc4-c4ccc(Cl)cc4)CC3)cc2)cc1S(=O)(=O)C(F)(F)F [AZD4320] + CC(=O)O[C@H]1C(=O)[C@@]2(C)[C@H]([C@H](OC(=O)c3ccccc3)[C@]3(O)C[C@H](OC(=O)[C@H](O)[C@@H](NC(=O)c4ccccc4)c4ccccc4)C(C)=C1C3(C)C)[C@]1(OC(C)=O)CO[C@@H]1C[C@@H]2O [Paclitaxel] (first compound max 1 µM, 7x7, partner max 3 µM)	0.0037	0.0811			0.0287	0.108						
C[C@@H](c1ccc2nccn2c1)n1nnc2ncc(-c3cnn(C)c3)nc21 [Savolitinib] + Cc1c2c(nn1C)CSCc1cc(n(C)n1)CSc1cc(c3ccccc3c1)OCCCc1c(C(=O)O)n(C)c3c-2c(Cl)ccc13 [AZD5991] (first compound max 1 µM, 7x7, partner max 1 µM)	0.065	0.0163		-0.0696	-0.047	-0.0423	-0.0187	-0.0088	-0.0547		-0.0343	0.976
CN(CCO)CC[C@H](CSc1ccccc1)Nc1ccc(S(=O)(=O)NC(=O)c2ccc(N3CCC([C@@H](O)c4ccccc4-c4ccc(Cl)cc4)CC3)cc2)cc1S(=O)(=O)C(F)(F)F [AZD4320] + Cc1cc2ncnn2cc1Nc1ncc2c(n1)n(C1CCOCC1)c(=O)n2C [AZD7648] (first compound max 1 µM, 7x7, partner max 10 µM)	0.0028	-0.0461		-0.0345	0.0237	-0.0105	0.0477	-0.0695	-0.0109		0.0839	0.516
Cc1cc2ncnn2cc1Nc1ncc2c(n1)n(C1CCOCC1)c(=O)n2C [AZD7648] + CN(C)CCCOc1ccc(-c2ccc3ncc4c(c3c2)n(C2CCOCC2)c(=O)n4C)cn1 [AZD0156] (first compound max 10 µM, 7x7, partner max 1 µM)	-0.0188	0.0007	-0.0328	0.0376	0.0214	0.0139	0.048	-0.0023	0.0081	0.296		
CC(=O)c1c(C)c2cnc(Nc3ccc(N4CCNCC4)cn3)nc2n(C2CCCC2)c1=O [Palbociclib] + CN(CC[C@H](CSC1=CC=CC=C1)NC2=C(C=C(C=C2)S(=O)(=O)NC(=O)C3=CC=C(C=C3)N4CCC(CC4)[C@H](C5=CC=CC=C5C6=CC=C(C=C6)Cl)O)S(=O)(=O)C(F)(F)F)CCO [AZD4320] (first compound max 10 µM, 7x7, partner max 1 µM)				-0.0385			0.0266	-0.0497	-0.062		-0.0428	0.436
Cc1nc(Nc2ncc(C(=O)Nc3c(C)cccc3Cl)s2)cc(N2CCN(CCO)CC2)n1 [Dasatinib] + CC(=O)Nc1cccc(-n2c(=O)n(C3CC3)c(=O)c3c(Nc4ccc(I)cc4F)n(C)c(=O)c(C)c32)c1 [Trametinib] (first compound max 2 µM, 7x7, partner max 1 µM)	0.123	-0.0114		-0.0672	-0.0261	-0.0661	-0.039	-0.0321	0.0114		-0.0223	0.128
N#Cc1cnc(Nc2cc(NC[C@H]3CNCCO3)c(C(F)(F)F)cn2)cn1 [SRA737] + CCc1c2c(nc3ccc(O)cc13)-c1cc3c(c(=O)n1C2)COC(=O)[C@]3(O)CC [SN-38] (first compound max 10 µM, 7x7, partner max 0.3 µM)	0.057	0.0142			0.0524	0.0191						
N#Cc1cnc(Nc2cc(NC[C@H]3CNCCO3)c(C(F)(F)F)cn2)cn1 [SRA737] + C=CCn1c(=O)c2cnc(Nc3ccc(N4CCN(C)CC4)cc3)nc2n1-c1cccc(C(C)(C)O)n1 [AZD1775] (first compound max 10 µM, partner max 1 µM)	0.0657	0.0021			0.109	0.041						
COc1cc2c(cc1OCCCCCOc1cc3c(cc1OC)C(=O)N1C=C(C)C[C@H]1C=N3)N=C[C@@H]1CC(C)=CN1C2=O [SG3199] + O=C(c1cc(Cc2n[nH]c(=O)c3ccccc23)ccc1F)N1CCN(C(=O)C2CC2)CC1 [Olaparib] (first compound max 0.001 µM, 7x7, partner max 10 µM)	-0.0469	-0.0195	0.0077	-0.0301	-0.0598	-0.0391	0.0051	-0.0459	-0.0297	0.144		
Cc1cc2ncnn2cc1Nc1ncc2c(n1)n(C1CCOCC1)c(=O)n2C [AZD7648] + C[C@@H]1COCCN1C2=NC(=NC(=C2)C3(CC3)[S@](=N)(=O)C)C4=C5C=CNC5=NC=C4 [AZD6738] (first compound max 10 µM, 7x7, partner max 10 µM)	-0.0121	0.0399	-0.0692	0.0258	-0.009	-0.0034	-0.0155	-0.0163	0.0044	0.722		
Cc1cc2ncnn2cc1Nc1ncc2c(n1)n(C1CCOCC1)c(=O)n2C [AZD7648] + COc1cc([C@@H]2c3cc4c(cc3[C@@H](O[C@@H]3O[C@@H]5CO[C@@H](C)O[C@H]5[C@H](O)[C@H]3O)[C@H]3COC(=O)[C@H]23)OCO4)cc(OC)c1O [Etoposide] (first compound max 10 µM, 7x7, partner max 10 µM)	0.0881	0.0032			0.0953	0.0858						
N#Cc1cnc(Nc2cc(NC[C@H]3CNCCO3)c(C(F)(F)F)cn2)cn1 [SRA737] + Nc1ccn([C@@H]2O[C@H](CO)[C@@H](O)C2(F)F)c(=O)n1 [Gemcitabine] (first compound max 10 µM, 7x7, partner max 0.3 µM)	0.0965	0.0075			-0.103	0.0014						
Cc1cc2ncnn2cc1Nc1ncc2c(n1)n(C1CCOCC1)c(=O)n2C [AZD7648] + O=C(c1cc(Cc2n[nH]c(=O)c3ccccc23)ccc1F)N1CCN(C(=O)C2CC2)CC1 [Olaparib] (first compound max 10 µM, 7x7, partner max 10 µM)	-0.0079	-0.0362	-0.0244	-0.0016	-0.0301	-0.0163	0.0055	-0.0445	-0.0157	0.316		
C[C@@H](c1ccc2nccn2c1)n1nnc2ncc(-c3cnn(C)c3)nc21 [Savolitinib] + CC1(C)CCC(CN2CCN(c3ccc(C(=O)NS(=O)(=O)c4ccc(NCC5CCOCC5)c([N+](=O)[O-])c4)c(Oc4cnc5[nH]ccc5c4)c3)CC2)=C(c2ccc(Cl)cc2)C1 [Venetoclax] (first compound max 1 µM, 7x7, partner max 1 µM)	-0.0307	-0.014		-0.0374	-0.0188	-0.0566	-0.0361	-0.0617	-0.0419		-0.0471	0.0992
C[C@@H](c1ccc2nccn2c1)n1nnc2ncc(-c3cnn(C)c3)nc21 [Savolitinib] + CN(CC[C@H](CSC1=CC=CC=C1)NC2=C(C=C(C=C2)S(=O)(=O)NC(=O)C3=CC=C(C=C3)N4CCC(CC4)[C@H](C5=CC=CC=C5C6=CC=C(C=C6)Cl)O)S(=O)(=O)C(F)(F)F)CCO [AZD4320] (first compound max 1 µM, 7x7, partner max 1 µM)				-0.0391			-0.0172	-0.0433	-0.0078		-0.0252	0.454
CN(CCO)CC[C@H](CSc1ccccc1)Nc1ccc(S(=O)(=O)NC(=O)c2ccc(N3CCC([C@@H](O)c4ccccc4-c4ccc(Cl)cc4)CC3)cc2)cc1S(=O)(=O)C(F)(F)F [AZD4320] + C[C@@H]1COCCN1C2=NC(=NC(=C2)C3(CC3)[S@](=N)(=O)C)C4=C5C=CNC5=NC=C4 [AZD6738] (first compound max 1 µM, 7x7, partner max 10 µM)	-0.0251	0.0036		-0.0319	0.0219	-0.0163	0.0545	-0.0307	-0.005		0.0042	0.921
COc1cc2ncnc(Nc3ccc(F)c(Cl)c3)c2cc1OCCCN1CCOCC1 [Gefitinib] + CC(C)n1c(=O)n(C)c2cnc3cc(F)c(-c4ccc(OCCCN5CCCCC5)nc4)cc3c21 [AZD1390] (first compound max 10 µM, 7x7, partner max 0.3 µM)	-0.0956	-0.0421		-0.0578	-0.0183	-0.05	-0.0831	-0.0662	-0.0543		-0.0419	0.0382
CN(CCO)CC[C@H](CSc1ccccc1)Nc1ccc(S(=O)(=O)NC(=O)c2ccc(N3CCC([C@@H](O)c4ccccc4-c4ccc(Cl)cc4)CC3)cc2)cc1S(=O)(=O)C(F)(F)F [AZD4320] + CCN(CCO)CCCOc1ccc2c(Nc3cc(CC(=O)Nc4cccc(F)c4)[nH]n3)ncnc2c1 [AZD2811] (first compound max 1 µM, 7x7, partner max 1 µM)	0.0663	-0.0149		-0.0242	0.0638	0.0246	0.184	-0.024	-0.0293		0.138	0.538
COc1nnc2ccc(N3CCC(c4ccc(OCCN5CCN(C)C(=O)[C@H]5C)cc4)CC3)nn12 [AZD5153] + CN(CC[C@H](CSC1=CC=CC=C1)NC2=C(C=C(C=C2)S(=O)(=O)NC(=O)C3=CC=C(C=C3)N4CCC(CC4)[C@H](C5=CC=CC=C5C6=CC=C(C=C6)Cl)O)S(=O)(=O)C(F)(F)F)CCO [AZD4320] (first compound max 1 µM, 7x7, partner max 1 µM)				-0.033			0.01	0.0387	0.015		0.0512	0.688
